Here are results for 1 compound from ChEMBL document CHEMBL5260825, “Chemical Constituents of Bryophytes: Structures and Biological Activity” (J Nat Prod, 2018).

One series has as its system KB. In words: Antiproliferative activity against human KB cells assessed as cell growth inhibition. Type of series: functional, cell-based.
For a further series, the system named is P388. The series is described as follows: Antiproliferative activity against mouse P388 cells assessed as cell growth inhibition. Type of series: functional, cell-based.
Series [1] in a line: Cytotoxicity against mouse 3T3 cells assessed as reduction in cell viability. Format: toxicity, cell-based. The settings on record: NIH3T3 cells.
For a further series, the system named is NCI-H460. In words: Antiproliferative activity against human NCI-H460 cells assessed as cell growth inhibition. Format: functional.
Another series relates to DU-145. The series is described as follows: Antiproliferative activity against human DU-145 cells assessed as cell growth inhibition. Format: functional.
The subject of another series is MCF7. In words: Antiproliferative activity against human MCF7 cells assessed as cell growth inhibition. Format: functional, cell-based.
The subject of the next series is M14. In words: Antiproliferative activity against human M14 cells assessed as cell growth inhibition. Type of series: functional.
Another series concerns HT-29. In words: Antiproliferative activity against human HT-29 cells assessed as cell growth inhibition. Format: functional, cell-based.
The next series deals with K562. In words: Antiproliferative activity against human K562 cells assessed as cell growth inhibition. Format: functional.
For another series, the system named is U-937. The series is described as follows: Antiproliferative activity against human U-937 cells assessed as cell growth inhibition. Format: functional.
A further series deals with HCT-116. In words: Antiproliferative activity against human HCT-116 cells assessed as cell growth inhibition. Format: functional.
The test system of a further series is A549. In words: Antiproliferative activity against human A549 cells assessed as cell growth inhibition. Format: functional.
In a further series the test system is Caenorhabditis elegans. The series is described as follows: Nematocidal activity against Caenorhabditis elegans. Format: functional, organism-based.
The subject of a further series is Leishmania amazonensis. In words: Antileishmanial activity against Leishmania amazonensis axenic amastigotes assessed as inhibition of parasite growth. Type of series: functional, organism-based.
In series [2] the test system is Trypanosoma brucei brucei. In words: […] activity against Trypanosoma brucei brucei GUTat 3.1 assessed as inhibition of parasite growth measured after 72 hrs by alamar blue assay. The settings on record: GUTat 3.1, time 72 hrs. Format: functional, organism-based. Background: The colour change of resazurin is a common sign of viable cells or microbes.

The structures appear in SMILES notation. pIC50: −log10 of the molar value. In brackets after ≈: the same amount, converted by molar mass.

Turning to `CC(=O)OCC1=CO[C@H](OC(C)=O)[C@@H]2[C@H]1[C@@H]1[C@H](CC[C@@]23CO3)C1(C)C`, the half-inhibitory concentration (IC50) with KB stood at 0.28 µg/mL (≈ 0.799 µM); with P388, 3 µg/mL (≈ 8.56 µM); in the series with Caenorhabditis elegans, 111 µg/mL (≈ 317 µM). For the same compound, the 50% growth inhibitory concentration (GI50) in [1] was 1700 nM; with NCI-H460, 4.8 µM; in the series with DU-145, 1400 nM; in the series with MCF7, 6.8 µM; in the series with M14, 3.9 µM; in the series on HT-29, 1900 nM. Further, the GI50 came out at 4.8 µM in the series on K562, 2600 nM in the series with U-937, 4.7 µM with HCT-116 and 9.4 µM in the series with A549. For the same compound, the negative-log IC50 (pIC50) in the series with Leishmania amazonensis is 5.15. The minimal inhibitory concentration (MIC) in [2] is 14.5 µM (≈ 5.08 µg/mL).

Usually IC50 stands for the concentration at which inhibition is half-maximal. In general, GI50 refers to the concentration that inhibits growth by half. Broadly, the pIC50 is the IC50 on a negative log10 scale, so that one unit is a factor of ten. One may read the MIC as the least concentration at which growth counts as inhibited.
